In one assay the target is T1, TaGSK1 (Triticum aestivum, UniProt Q8LK43).
T1 construct: full length, N-terminal GST fusion, expressed in E. coli, glutathione Sepharose purified, tag kept
Briefly: in vitro kinase assay, […] phosphorylation of myelin basic protein, autoradiography. Format: biochemical. The conditions noted are these: read-out: % residual activity at 15 μM.

In a further assay the target is T2, BIN2 (Arabidopsis thaliana, UniProt Q39011).
T2 construct: gene ASK7; full length, N-terminal GST fusion, expressed in E. coli, glutathione Sepharose purified, tag kept
T2 sequence (Q39011 1-380): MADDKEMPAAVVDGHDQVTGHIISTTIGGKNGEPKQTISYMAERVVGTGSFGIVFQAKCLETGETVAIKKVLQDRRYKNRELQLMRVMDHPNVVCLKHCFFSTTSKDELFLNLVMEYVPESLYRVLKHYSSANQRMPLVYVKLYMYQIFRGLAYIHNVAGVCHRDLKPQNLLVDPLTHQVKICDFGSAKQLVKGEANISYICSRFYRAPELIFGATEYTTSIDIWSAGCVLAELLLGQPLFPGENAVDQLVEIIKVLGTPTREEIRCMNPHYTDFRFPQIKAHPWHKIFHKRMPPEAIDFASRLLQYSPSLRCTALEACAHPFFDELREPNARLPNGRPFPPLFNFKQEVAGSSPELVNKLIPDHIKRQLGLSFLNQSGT
Described as above. The following applies: read-out: % residual activity at 15 μM. Format: biochemical.

Where only a bound is given, the exact number is not on record here.

T1 sequence (Q8LK43 1-381): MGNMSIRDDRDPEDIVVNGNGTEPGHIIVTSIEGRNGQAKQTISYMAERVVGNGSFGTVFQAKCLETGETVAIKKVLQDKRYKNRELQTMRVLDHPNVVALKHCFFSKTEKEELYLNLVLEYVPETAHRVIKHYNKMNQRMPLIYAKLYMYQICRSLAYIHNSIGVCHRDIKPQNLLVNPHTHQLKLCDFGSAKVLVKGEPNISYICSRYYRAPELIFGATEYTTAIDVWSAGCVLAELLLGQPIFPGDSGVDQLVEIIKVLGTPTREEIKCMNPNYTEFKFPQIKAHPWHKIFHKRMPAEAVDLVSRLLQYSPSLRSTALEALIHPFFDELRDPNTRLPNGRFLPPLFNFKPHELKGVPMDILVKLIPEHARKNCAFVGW

As for `O=C(O)CCC(=O)Nc1ccc(Br)cn1` [Bikinin, 4-[(5-bromo-2-pyridinyl)amino]-4-oxobutanoic acid], the values for the remaining activity at 15 µM on TaGSK1 and at BIN2 were around 30% and below 5%, respectively.

Values taken from article PMC4604091, “Two homolog wheat Glycogen Synthase Kinase 3/SHAGGY - like kinases are involved in brassinosteroid signaling” (BMC Plant Biology, 2015).
